Reference: US20220409617A1, “Drug Formulations and Methods of Treatment for Metabolic Disorders” (The Regents of the University of California, priority 2019, published 2022)

Tests used:
[1] = system: 3T3-L1 adipocytes; assay: Insulin-stimulated 2-deoxyglucose uptake; format: cell-based, mouse; conditions: 3 h, 893 10 μM, MK-2206 2 μM
Protocol: (§1) 3T3-L1 cells were maintained in DMEM with 10% FBS and 1% penicillin-streptomycin until induced to differentiate. 3T3-L1 pre-adipocytes were differentiated as described in (M. P. Valley, et al., Anal. Biochem. 505: 43-50, 2016, the disclosure of which is incorporated herein by reference) with slight modifications. Briefly, pre-adipocytes were grown to confluence. After 2 d, cells were induced with maintenance media containing 500 μM IBMX (15879, Sigma-Aldrich, St. Louis, Mo.), 1 μM dexamethasone (D4902, Sigma-Aldrich), 5 μg/mL bovine insulin (10516, Sigma-Aldrich), and 5 μM troglitazone (50-115-0786, ApexBio). Media was changed every 2-3 d for 7 d. On day 7 post-induction, media was changed to maintenance media+5 μg/mL bovine insulin. On day 9 post-induction, media was changed to maintenance media. Mature adipocytes were used 12-14 d post-induction for all experiments. LSL-KrasG12D mouse embryonic fibroblasts (MEFs) with and without Cre-mediated deletion of the STOP cassette were obtained from David Tuveson (Cold Spring Harbor Laboratory, Cold Spring Harbor N.Y., USA) in 2000. p53^flox/flox MEFs were derived in house (2015) from C57BL/6 mice using standard techniques and immortalized by transient expression of Cre recombinase and deletion of p53. MEFs were cultured and maintained in DMEM with 10% FBS and 1% penicillin-streptomycin. […]

[2] = system: DRP1; assay: DRP1 recruitment to mitochondria (DRP1/citrate synthase co-localization) and DRP1 western blot; format: cell-based, mouse; conditions: MEFs; 893 5 μM or YM201636 800 nM 3 h, then palmitate 250 μM 3 h
Protocol: Mature adipocytes were serum starved for 16 h then treated with vehicle, ceramide (50 or 100 μM), or sphingolipid-like compound 893 (5 or 10 μM) in serum-free media supplemented with 0.2% fatty-acid free BSA for 3 h after which 100 nM insulin was added for 15 min. To determine total DRP1 protein levels, 100,000 MEFs were seeded into a 6-well plate for 16 h, pre-treated for 3 h with vehicle or sphingolipid-like compound 893 (5 μM) followed by a 3 h incubation in 1% BSA+ethanol or BSA-palmitate (250 μM). Cells were washed once with cold PBS, then lysed in cold RIPA buffer (140 mM NaCl, 10 mM Tris pH 8.0, 1% Triton X-100, 0.1% SDS, 1% sodium deoxycholate) with cOmplete™ protease inhibitor (Cat no. 11697498001, Millipore Sigma, St. Louis, Mo.) and phosSTOP™ phosphatase inhibitor (Cat no. 4906837001, Millipore Sigma). Samples were incubated on ice for 10 min and insoluble material removed by centrifugation (9000×g for 10 min at 4° C.). Protein content was quantified in the supernatant using the Pierce™ BCA Protein Assay Kit (Thermo-Fisher Scientific, Waltham, Mass.). Equal amounts of protein were prepared in NuPAGE® LDS Sample Buffer (NP0007, Invitrogen) containing 50 mM DTT, and heated at 70° C. for 10 min. Proteins were resolved on a NuPAGE® 4-12% Bis-Tris protein gel (NP0336, Invitrogen, Carlsbad, Calif.) and subsequently transferred to a nitrocellulose membrane. Membranes were blocked in 5% BSA in TBST for 1 h, then probed with primary antibodies overnight at 4° C. […] Band intensity was quantified using Image Studio Lite V5.2 software (Li-COR).
MEFs were washed twice with PBS and fixed with 4% paraformaldehyde for 10 min at RT. […] NADH/NADPH autofluorescence was detected with 740 nm excitation and 450±50 nm detectors using a Mai Tai two-photon laser. Fluorescence microscopy was performed on a Zeiss LSM 780 confocal using a 63× oil objective with a […] numerical aperture (NA) or using a Nikon TE2000-S inverted epifluorescence microscope with a 100× oil objective (1.3 NA) and a Photometrics CoolSNAP ES2 monochrome CCD camera. […]

[3] = system: AKT; assay: Insulin-stimulated AKT activation, western blot; format: cell-based, mouse; conditions: 3T3-L1 adipocytes; 3 h pre-treatment, C2-ceramide 50 or 100 μM, 893 5 or 10 μM; insulin 100 nM 15 min
Protocol: as §1, with “experiments.” for “experiments. LSL-KrasG12D mouse embryonic fibroblasts (MEFs) with and without Cre-mediated deletion of the STOP cassette were obtained from David Tuveson (Cold Spring Harbor Laboratory, Cold Spring Harbor N.Y., USA) in 2000. p53^flox/flox MEFs were derived in house (2015) from C57BL/6 mice using standard techniques and immortalized by transient expression of Cre recombinase and deletion of p53. MEFs were cultured and maintained in DMEM with 10% FBS and 1% penicillin-streptomycin.”
Mature adipocytes were serum starved for 16 h then treated with vehicle, ceramide (50 or 100 μM), or sphingolipid-like compound 893 (5 or 10 μM) in serum-free media supplemented with 0.2% fatty-acid free BSA for 3 h after which 100 nM insulin was added for 15 min. […] Protein content was quantified in the supernatant using the Pierce™ BCA Protein Assay Kit (Thermo-Fisher Scientific, Waltham, Mass.). […]

[4] = Home-cage feeding study with suboptimal leptin (leptin sensitization); format: in vivo, mouse; conditions: lean chow-fed 18 week old mice; leptin 2 mg/kg i.p. or 893 120 mg/kg by gavage
From the text: Leptin is secreted by adipocytes in proportion to their triglyceride content, signaling to the CNS when peripheral energy stores are full and food consumption should decrease. In HFD-fed mice, chronic increases in adiposity lead to elevations in circulating leptin with no accompanying decrease in food intake, a state that has been termed leptin-resistant. Reducing leptin levels in the blood restores leptin signaling in the hypothalamus (S. Zhao, et al., 2019, cited supra). Thus, the sphingolipid-like compound 893 should function as a leptin-sensitizing agent. To test this model, 18 week old lean, male C57BL/6J mice were treated intraperitoneally with a suboptimal dose of recombinant leptin at ZT8.5 and food intake and body weight measured over the next 18 h. […] In summary, the reduction in food intake in sphingolipid-like compound 893-treated mice is consistent with the reversal of mitochondrial fragmentation in the hypothalamus and likely due in part to the re-sensitization of anorexigenic POMG neurons to leptin when plasma leptin levels are decreased.
Mice were singly housed and allowed to acclimate for 72 h before food intake was monitored. Food consumption was determined by monitoring the weight of food in the hopper. Initial food and body weight measurements were taken at ZT9 and final measurements were taken 16 h later to capture the active period where most consumption occurred. Home cage feeding studies were performed with C57BL/6J mice maintained on a HFD for 24 weeks (33 weeks of age), or ob/ob mice at 8 weeks of age. Mice received vehicle or 120 mg/kg sphingolipid-like compound 893 by gavage at ZT8.5. For experiments involving leptin, 18 week old, SD fed (16% kcal from fat, 2020×, Envigo) C57BL/6J mice received vehicle or 120 mg/kg sphingolipid-like compound 893 by gavage at ZT8.5. […] One ob/ob mouse died during Echo MRI for unknown reasons after 6 d of treatment with sphingolipid-like compound 893; data from this mouse was analyzed prior to death.

NC1(c2ccc(-c3nc4ccn5c(=O)[nH]nc5c4cc3-c3ccccc3)cc2)CCC1 [MK-2206, reference compound]
Insulin-stimulated glucose uptake [1]: impeded insulin-stimulated glucose uptake in adipocytes

Nc1ccc(C(=O)Nc2cccc(-c3nc(N4CCOCC4)c4oc5ncccc5c4n3)c2)cn1 [YM201636, reference compound]
DRP1 recruitment to mitochondria in response to palmitate [2]: prevented DRP1 recruitment

CCCCCCCCCCCCC/C=C/[C@@H](O)[C@H](CO)NC(C)=O [ceramide, C2-ceramide, reference compound]
Insulin-stimulated AKT activation [3]: interfered with insulin-stimulated AKT activation

B1: leptin: recombinant mouse leptin (498-OB, R&D Systems) (protein, UniProt P41160 22-167, looked up)
Leptin: VPIQKVQDDTKTLIKTIVTRINDISHTQSVSAKQRVTGLDFIPGLHPILSLSKMDQTLAVYQQVLTSLPSQNVLQIANDLENLRDLLHLLAFSKSCSLPQTSGLQKPESLDGVLEASLYSTEVVALSRLQGSLQDILQQLDVSPEC
Food intake and body weight over 18 h, single agent [4]: not sufficient to decrease food intake or body weight
